Reference: patent US11065245B2, “Priming of cancer cells with low dose naltrexone” (CANCER VACCINE INSTITUTE, priority 2014, dated 2021)

Experiments:
[1] = system: A549 cells (a lung cancer cell line); assay: Cell growth (MTT) with recovery (wash) phase after naltrexone; type: cell-based; conditions: 1 nM and 10 nM naltrexone 48 h then 24 h drug-free vs 72 h continuous
Description: (§1) (A) A549 cells (a lung cancer cell line) and (B) HCT116 cells (a colorectal carcinoma cell line), were cultured for 48 h in 1 nM and 10 nM (low dose) naltrexone (LDN) and in 1 μM and 10 μM (standard dose) naltrexone (NTX). Cells were either then washed and allowed to grow in drug-free medium for 24 h (wash) or continuously cultured in naltrexone for a total of 72 h (72); cell was viability assessed by absorbance readings. Effect of the wash step on HCT116 cells were also measured by (C) 3-(4,5-dimethylthiazol-2-yl)-2,5-diphenyltetrazolium bromide (MTT) colorimetric assay, (D) cell counting and (E) percentage of viable cells.
(§2) To study the effect of each agent on cell growth, cells growing exponentially were added to 96-well plates at a density of 3×10^4/well. Drugs were then added to the wells, ensuring an equal volume of 200 μl across the plate. Cell number was measured at 72 hr using a standard methylthiazoletetrazolium (MTT)-based assay without modifications. Briefly, MTT was added to each well to give a working concentration of 0.4 mg/ml, and plates returned to the incubator for a further 1 hr. After this time, the medium was aspirated off, 200 μl of DMSO was then added to each well and plates agitated gently for 5 min before measuring optical density at 540 nm in each well. […]

[2] = system: HCT116 cells (a colorectal carcinoma cell line); assay: Cell growth (MTT, cell counting, viability) with recovery (wash) phase after naltrexone; type: cell-based, human; conditions: 1 nM and 10 nM naltrexone 48 h then 24 h drug-free vs 72 h continuous
Description: as §1, §2

[3] = system: T98G cells (glioma cell line); assay: Cell growth (absorbance) with recovery (wash) phase after naltrexone; type: cell-based; conditions: naltrexone 48 h then 24 h drug-free vs 72 h continuous
Description: (§3) To study the effect of each agent on cell growth, cells growing exponentially were added to 96-well plates at a density of 3×10^4/well. Drugs were then added to the wells, ensuring an equal volume of 200 μl across the plate. Cell number was measured at 72 hr using a standard methylthiazoletetrazolium (MTT)-based assay without modifications. Briefly, MTT was added to each well to give a working concentration of 0.4 mg/ml, and plates returned to the incubator for a further 1 hr. After this time, the medium was aspirated off, 200 μl of DMSO was then added to each well and plates agitated gently for 5 min before measuring optical density at 540 nm in each well. The effect of recovery, where a wash step was included, was studied by removing naltrexone-containing medium and replacing this with fresh drug-free medium after 48 hr, before assessing cell number at the 72 hr time-point. Cell counting was performed by under light microscopy using staining with trypan blue to aid the discrimination of dead/dying cells. See description of FIGS. 1 and 2.

[4] = system: U87MG cells (glioma cell line); assay: as above; type: cell-based; conditions: naltrexone 48 h then 24 h drug-free vs 72 h continuous
Description: as §3

[5] = system: Bcl-2-associated death promoter (BAD) protein; assay: Western blot/densitometry of cell cycle proteins in HCT116 cells; type: cell-based, human; conditions: 10 nM naltrexone (LDN), 48 h
Description: (§4) Methodologically, HCT116 cells were treated with NTX and LDN for 48 h before determination of cellular proteins as labelled in the figure. The intensities of each of the bands indicate the level at which these proteins were expressed, which were enumerated by density analysis.
(§5) Cells were treated with 10 μM naltrexone (NTX) or 10 nM naltrexone (LDN) for 48 hr before they were harvested, and total cellular protein was solubilised in lysis buffer and resolved by Tris-glycine electrophoresis using a 4-12% bis-tris gradient-gel. Following transfer of proteins to 0.45-lm nitrocellulose membranes, blocking was performed in 5% (w/v) nonfat milk in TTBS [0.5% (v/v) Tween-20 in TBS (50 mM Tris, 150 mM NaCl, pH 8.0)]. Primary antibody probing for the protein specified in the figure were performed overnight at 4° C. before secondary probing using horseradish peroxidase-conjugated anti-species IgG1. Bands were visualised by the ECL-plus detection system. Densitometry analysis was performed using proprietary analysis software. RNA was extracted from these cells for gene expression analysis. RNA was purified by Trizol, followed by precipitation with isopropanol. […] Equal amounts (750 ng) of cRNA were hybridised to the Illumina human HT12-v3 arrays for 18 hr and subsequently processed according to manufacturer's instructions before scanning on an Illumina BeadArray Reader. […]

phosphorylated AKT = assay: as above; type: cell-based, human; conditions: 10 nM naltrexone (LDN), 48 h
Description: as §4, §5

murine neuroblastoma = conditions: murine xenograft model; cited from earlier work
[6] = system: human colon cancer cell growth; conditions: murine xenograft model; cited from earlier work
[7] = system: human ovarian cancer cells; conditions: short-term naltrexone exposure; cited from earlier work

O=C1CC[C@@]2(O)[C@H]3Cc4ccc(O)c5c4[C@@]2(CCN3CC2CC2)[C@H]1O5 [LDN, morphinan-6-one, 17-(cyclopropylmethyl)-4,5-epoxy-3,14-di hydroxy-(5α)]
cell numbers, recovery (wash) phase vs continuous administration [1]: greater reduction in cell numbers | cell numbers, recovery (wash) phase vs continuous administration [2]: greater reduction in cell numbers | cell numbers, recovery (wash) phase vs continuous administration [3]: greater reduction in cell numbers | cell numbers, recovery (wash) phase vs continuous administration [4]: greater reduction in cell numbers | BAD protein level relative to untreated cells [5]: upregulated | phosphorylated AKT level relative to untreated cells (phosphorylated AKT): downregulated | growth of murine neuroblastoma (murine neuroblastoma): inhibition | growth of human colon cancer cells [6]: inhibition | DNA synthesis [7]: decrease in DNA synthesis
